# Data published in US12479843B2, “Spiro ring-containing quinazoline compounds” (WIGEN BIOMEDICINE TECHNOLOGY (SHANGHAI) CO., LTD., priority 2019, dated 2025).
# Test system: pERK level in H358 cells
# Assay: pERK and ERK protein content assay in H358 cells (ELISA)
# Assay type: cell-based
# Settings: Homo sapiens, NCI-H358, compound 1 μM, 24 h, pERK/ERK ratio compared with DMSO group, read-out: Inhibition rate (%) of pERK level
# Summary of the method: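 H358 cells grown one day, then treated 24 h with compound at 1 μM. pERK and ERK in lysates measured by ELISA; pERK/ERK ratio expressed as percent inhibition versus DMSO.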
row,SMILES,inhibition at 1 µM
1,C=CC(=O)N1CC2(CCN(c3nc(N4CC[C@@H](N(CC)CC)C4)nc4c(OCC(F)(F)F)c(-c5c(C)ccc6[nH]ncc56)c(C5CC5)cc34)CC2)C1 [Compound 190],> 90%
2,C=CC(=O)N1CC2(CCN(c3nc(N4CC[C@@H](N5CCC5)C4)nc4c(OCC(F)(F)F)c(-c5c(C)ccc6[nH]ncc56)c(C5CC5)cc34)CC2)C1 [Compound 182],> 90%
3,C=CC(=O)N1CC2(CCN(c3nc(N4CC(N5CCCCC5)C4)nc4c(OCC(F)(F)F)c(-c5c(C)ccc6[nH]ncc56)c(C5CC5)cc34)CC2)C1 [Compound 177],> 90%
4,C=CC(=O)N1CC2(CCN(c3nc(N4CC5(CCN(C6COC6)CC5)C4)nc4c(OCC(F)(F)F)c(-c5c(C)ccc6[nH]ncc56)c(C5CC5)cc34)CC2)C1 [Compound 89],> 90%
5,C=C(F)C(=O)N1CC2(CCN(c3nc(N4CC5(CCN(CCOC)C5)C4)nc4c(OCC(F)(F)F)c(-c5c(C)ccc6[nH]ncc56)c(C5CC5)cc34)CC2)C1 [Compound 76],> 90%
6,C=CC(=O)N1CC2(CCN(c3nc(N4CC(N5CC(C#N)C5)C4)nc4c(OCC(F)(F)F)c(-c5c(C)ccc6[nH]ncc56)c(C5CC5)cc34)CC2)C1 [Compound 238],> 90%
7,C=CC(=O)N1CC2(CCN(c3nc(N4CCC(N5CCCC5)CC4)nc4c(OCC(F)(F)F)c(-c5c(C)ccc6[nH]ncc56)c(C5CC5)cc34)CC2)C1 [Compound 216],> 90%
8,C=C(F)C(=O)N1CC2(CCN(c3nc(N4CCC5(CCN(CCOC)C5)CC4)nc4c(OCC(F)(F)F)c(-c5c(C)ccc6[nH]ncc56)c(C5CC5)cc34)CC2)C1 [Compound 106],50 to 90%
9,C=CC(=O)N1CC2(CCN(c3nc(N4CC5(CSC5)C4)nc4c(OCC(F)(F)F)c(-c5c(C)ccc6[nH]ncc56)c(C5CC5)cc34)CC2)C1 [Compound 304],50 to 90%
10,C=C(F)C(=O)N1CC2(CCN(c3nc(N4CC5(CCN(CC(F)(F)F)CC5)C4)nc4c(OCC(F)(F)F)c(-c5c(C)ccc6[nH]ncc56)c(C5CC5)cc34)CC2)C1 [Compound 86],50 to 90%
11,C=CC(=O)N1CC2(CCN(c3nc(OC4CCN(CCOC)CC4)nc4c(OCC(F)(F)F)c(-c5c(O)cccc5F)c(C5CC5)cc34)CC2)C1 [Compound 45],> 90%
12,C=CC(=O)N1CC2(CCN(c3nc(N4CC(N5CCC[C@@H]5CO)C4)nc4c(OCC(F)(F)F)c(-c5c(C)ccc6[nH]ncc56)c(C5CC5)cc34)CC2)C1 [Compound 251],> 90%
13,C=CC(=O)N1CC2(CCN(c3nc(N4CC5(CCN(CCOCC)CC5)C4)nc4c(OCC(F)(F)F)c(-c5c(C)ccc6[nH]ncc56)c(C5CC5)cc34)CC2)C1 [Compound 93],> 90%
14,C=C(F)C(=O)N1CC2(CCN(c3nc(OC4CC5(CCN(C(C)CC)CC5)C4)nc4c(OCC(F)(F)F)c(-c5c(C)ccc6[nH]ncc56)c(C5CC5)cc34)CC2)C1 (stereo not drawn) [Compound 134],> 90%
15,C=CC(=O)N1CC2(CCN(c3nc(OC4CCN(CCOC)CC4)nc4c(OCC(F)(F)F)c(-c5c(C)ccc6[nH]nnc56)c(C5CC5)cc34)CC2)C1 [Compound 39],> 90%
16,C=CC(=O)N1CC2(CCN(c3nc(N4CC[C@H](N5CCCCC5)C4)nc4c(OCC(F)(F)F)c(-c5c(C)ccc6[nH]ncc56)c(C5CC5)cc34)CC2)C1 [Compound 207],> 90%
17,C=CC(=O)N1CC2(CCN(c3nc(N4CC(N5CC(CC#N)C5)C4)nc4c(OCC(F)(F)F)c(-c5c(C)ccc6[nH]ncc56)c(C5CC5)cc34)CC2)C1 [Compound 242],> 90%
18,C=C(C(=O)N1CC2(CCN(c3nc(OC4CCN(CCOC)CC4)nc4c(OCC(F)(F)F)c(-c5c(C)ccc6[nH]ncc56)c(C5CC5)cc34)CC2)C1)C(F)(F)F [Compound 19],50 to 90%
19,C=CC(=O)N1CC2(CCN(c3nc(N4CC5(CCN(C6CC6)CC5)C4)nc4c(OCC(F)(F)F)c(-c5c(C)ccc6[nH]ncc56)c(C5CC5)cc34)CC2)C1 [Compound 79],50 to 90%
20,C=CC(=O)N1CC2(CCN(c3nc(N4CC[C@@H](N5CC(F)C5)C4)nc4c(OCC(F)(F)F)c(-c5c(C)ccc6[nH]ncc56)c(C5CC5)cc34)CC2)C1 [Compound 202],> 90%
21,C=CC(=O)N1CC2(CCN(c3nc(N(C)CCN4CC[C@H](OC)C4)nc4c(OCC(F)(F)F)c(-c5c(C)ccc6[nH]ncc56)c(C5CC5)cc34)CC2)C1 [Compound 235],> 90%

# Test system: H358 cells
# Assay: Antiproliferative activity against H358 cells (Cell Titer Glow, ultra-low attachment plate)
# Assay type: cell-based
# Settings: Homo sapiens, NCI-H358, 72 h, 96-well ultra-low attachment plate, three days after addition of compound, Cell Titer Glow
# Method: 2500 H358 cells were seeded in a 96-well ultra-low attachment plate (corning, 7007). After one day of growth, a serially diluted compound (a maximum concentration of 5 μM, 5-fold dilution, a total of five doses) was added. Three days after the addition of the compound, Cell Titer Glow (Promega, G9681) was added to evaluate pellet growth, and the IC50 value was calculated.
row,SMILES,IC50
1,C=CC(=O)N1CC2(CCN(c3nc(N4CC(N5CC(C#N)C5)C4)nc4c(OCC(F)(F)F)c(-c5c(C)ccc6[nH]ncc56)c(C5CC5)cc34)CC2)C1 [Compound 238],0.3 to 1 µM
2,C=C(F)C(=O)N1CC2(CCN(c3nc(N4CCC5(CCN(CCOC)C5)CC4)nc4c(OCC(F)(F)F)c(-c5c(C)ccc6[nH]ncc56)c(C5CC5)cc34)CC2)C1 [Compound 106],0.3 to 1 µM
3,C=CC(=O)N1CC2(CCN(c3nc(N4CC5(CSC5)C4)nc4c(OCC(F)(F)F)c(-c5c(C)ccc6[nH]ncc56)c(C5CC5)cc34)CC2)C1 [Compound 304],0.3 to 1 µM
4,C=C(F)C(=O)N1CC2(CCN(c3nc(N4CC5(CCN(CC(F)(F)F)CC5)C4)nc4c(OCC(F)(F)F)c(-c5c(C)ccc6[nH]ncc56)c(C5CC5)cc34)CC2)C1 [Compound 86],0.3 to 1 µM
5,C=CC(=O)N1CC2(CCN(c3nc(N4CC(N5CC(CC#N)C5)C4)nc4c(OCC(F)(F)F)c(-c5c(C)ccc6[nH]ncc56)c(C5CC5)cc34)CC2)C1 [Compound 242],< 0.3 µM
6,C=C(C(=O)N1CC2(CCN(c3nc(OC4CCN(CCOC)CC4)nc4c(OCC(F)(F)F)c(-c5c(C)ccc6[nH]ncc56)c(C5CC5)cc34)CC2)C1)C(F)(F)F [Compound 19],0.3 to 1 µM
7,C=CC(=O)N1CC2(CCN(c3nc(N4CC5(CCN(C6CC6)CC5)C4)nc4c(OCC(F)(F)F)c(-c5c(C)ccc6[nH]ncc56)c(C5CC5)cc34)CC2)C1 [Compound 79],0.3 to 1 µM
8,C=CC(=O)N1CC2(CCN(c3nc(N4CC[C@@H](N5CC(F)C5)C4)nc4c(OCC(F)(F)F)c(-c5c(C)ccc6[nH]ncc56)c(C5CC5)cc34)CC2)C1 [Compound 202],< 0.3 µM
9,C=CC(=O)N1CC2(CCN(c3nc(N(C)CCN4CC[C@H](OC)C4)nc4c(OCC(F)(F)F)c(-c5c(C)ccc6[nH]ncc56)c(C5CC5)cc34)CC2)C1 [Compound 235],< 0.3 µM

# The remaining lines, values ahead:
row,IC50,SMILES
1,< 0.3 µM,C=CC(=O)N1CC2(CCN(c3nc(N4CC[C@@H](N(CC)CC)C4)nc4c(OCC(F)(F)F)c(-c5c(C)ccc6[nH]ncc56)c(C5CC5)cc34)CC2)C1 [Compound 190]
2,< 0.3 µM,C=CC(=O)N1CC2(CCN(c3nc(N4CC[C@@H](N5CCC5)C4)nc4c(OCC(F)(F)F)c(-c5c(C)ccc6[nH]ncc56)c(C5CC5)cc34)CC2)C1 [Compound 182]
3,< 0.3 µM,C=CC(=O)N1CC2(CCN(c3nc(N4CC(N5CCCCC5)C4)nc4c(OCC(F)(F)F)c(-c5c(C)ccc6[nH]ncc56)c(C5CC5)cc34)CC2)C1 [Compound 177]
4,< 0.3 µM,C=CC(=O)N1CC2(CCN(c3nc(N4CC5(CCN(C6COC6)CC5)C4)nc4c(OCC(F)(F)F)c(-c5c(C)ccc6[nH]ncc56)c(C5CC5)cc34)CC2)C1 [Compound 89]
5,< 0.3 µM,C=C(F)C(=O)N1CC2(CCN(c3nc(N4CC5(CCN(CCOC)C5)C4)nc4c(OCC(F)(F)F)c(-c5c(C)ccc6[nH]ncc56)c(C5CC5)cc34)CC2)C1 [Compound 76]
6,< 0.3 µM,C=CC(=O)N1CC2(CCN(c3nc(N4CCC(N5CCCC5)CC4)nc4c(OCC(F)(F)F)c(-c5c(C)ccc6[nH]ncc56)c(C5CC5)cc34)CC2)C1 [Compound 216]
7,< 0.3 µM,C=CC(=O)N1CC2(CCN(c3nc(OC4CCN(CCOC)CC4)nc4c(OCC(F)(F)F)c(-c5c(O)cccc5F)c(C5CC5)cc34)CC2)C1 [Compound 45]
8,< 0.3 µM,C=CC(=O)N1CC2(CCN(c3nc(N4CC(N5CCC[C@@H]5CO)C4)nc4c(OCC(F)(F)F)c(-c5c(C)ccc6[nH]ncc56)c(C5CC5)cc34)CC2)C1 [Compound 251]
9,< 0.3 µM,C=CC(=O)N1CC2(CCN(c3nc(N4CC5(CCN(CCOCC)CC5)C4)nc4c(OCC(F)(F)F)c(-c5c(C)ccc6[nH]ncc56)c(C5CC5)cc34)CC2)C1 [Compound 93]
10,< 0.3 µM,C=C(F)C(=O)N1CC2(CCN(c3nc(OC4CC5(CCN(C(C)CC)CC5)C4)nc4c(OCC(F)(F)F)c(-c5c(C)ccc6[nH]ncc56)c(C5CC5)cc34)CC2)C1 (stereo not drawn) [Compound 134]
11,< 0.3 µM,C=CC(=O)N1CC2(CCN(c3nc(OC4CCN(CCOC)CC4)nc4c(OCC(F)(F)F)c(-c5c(C)ccc6[nH]nnc56)c(C5CC5)cc34)CC2)C1 [Compound 39]
12,< 0.3 µM,C=CC(=O)N1CC2(CCN(c3nc(N4CC[C@H](N5CCCCC5)C4)nc4c(OCC(F)(F)F)c(-c5c(C)ccc6[nH]ncc56)c(C5CC5)cc34)CC2)C1 [Compound 207]
